One experiment deals with human GSK-3β (Homo sapiens (Human), UniProt P49841). The experiment is described as follows: Activity on human GSK-3β, substrate phosphorylation measured by LANCE technology. The format is biochemical. Here is the method: Activity on human GSK-3β was assessed using the following methods (according to Meijer et al., Chem. Biol., 2003-10:1255-1266).
In a first screening assay, compounds were tested in duplicate at a concentration of 10 μM.
Human recombinant enzyme GSK-3β was incubated for 90 minutes at 22° C. in the presence of compounds or vehicle in a reaction buffer containing ATP plus 100 nM unphosphorylated specific substrate peptide (Ulight-[…]-amide). Substrate phosphorylation was measured by LANCE technology (PerkinElmer, Conn., USA).
The results, reported in the following Table 4, are expressed as a percent of inhibition of control specific activity obtained in the presence of the test compounds (as % inhibition at 10 μm).
In a second assay, the same compounds were assayed at five concentrations ranging from 100 μM to 10 nM with ten-fold dilutions in duplicate. Compounds 1 to 7, 9, 11 and 13 to 26 were tested using the same first assay, compounds 8, 10, 12, and 27 to 31 were tested in another assay based on the binding and displacement of AlexaFluor® 647 labeled, ATP-competitive Kinase inhibitor scaffold using LanthaScreen™ TR-FRET technology Eu Kinase assay packet according to manufacturer's instruction (Life Technologies, Italy).
The IC50 values (concentration causing a half maximal inhibition of control specific activity), reported in table 4, were determined by non-linear regression analysis of the inhibition curves generated with mean replicate values using Hill equation curve fitting.
(In general: Time-resolved FRET reads energy transfer from a long-lived donor to a nearby acceptor.)

The next experiment has as its target PKCbeta 1 (h) (Homo sapiens (Human), UniProt P05771). As to the kind of experiment: Kinase selectivity panel. The format is biochemical. The note with it: duplicate, read-out: % inhibition of control values, PKCbeta 1 (h). A digest of the protocol:
(§1)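 Single-point test at 10 μM, duplicate. Recombinant human kinase + specific peptide substrate + ATP, 22° C, 10–90 min depending on kinase; LANCE or HTRF detection of phospho-substrate. Output: % inhibition of control specific activity.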

For another experiment, the system named is AMPKalpha. The experiment is described as follows: Kinase selectivity panel. The format is biochemical, human. Particulars: 10 μM, duplicate. The method, then: (§2) (a) Compound 1 was tested against a panel of 60 kinases in order to assess its selectivity. The assays were chosen taking into consideration the diversity of assay families.
(§3) Human recombinant kinases were incubated in the presence of specific peptide substrates plus ATP for different times (10, 15, 30, 60 or 90 minutes) at 22° C. Phosphorylated substrate was detected by LANCE or HTRF technology (CISBIO, MA, USA).
(§4) Compound 1 was tested at 10 μM in duplicate.
(§5) The results are expressed as a percent of inhibition of control specific activity obtained in the presence of the test compound 1 and are reported in the following Table 5.
(§6) (b) Compounds 7, 12, 21 and 24 were tested against the same panel of 60 kinases under the same conditions described above for compound 1.
(§7) The results are expressed as a percent of inhibition of control specific activity obtained in the presence of the test compounds and are reported in the following Table 6.

The target of a further experiment is CDK2 (h) (cycA) (Homo sapiens (Human), UniProt P24941). As to the kind of experiment: Kinase selectivity panel and IC50 determination. The note with it: for inhibition at 10 µM: duplicate, read-out: % inhibition of control values, CDK2 (h) (cycA). It is filed as biochemical. Here is the method: as §2, §3, §4, §5
(§8) Compound 1 was also assayed to determine the IC50 values for three different kinases (PCTAIRE1, DYRK1a, and CDK2) in comparison to Gsk3β. The assay was conducted with the same method described above in test I, second assay.
as §6, §7

For the next experiment, the target named is PCTAIRE1 kinase (h) (Homo sapiens (Human), UniProt Q00536). The experiment is described as follows: Kinase selectivity panel and IC50 determination. Particulars: for inhibition at 10 µM: duplicate, read-out: % inhibition of control values, PCTAIRE1 kinase (h). It is filed as biochemical. Here is the method: as §2, §3, §4, §5, §8, §6, §7
Chain of PCTAIRE1 kinase (h) (Q00536 whole entry): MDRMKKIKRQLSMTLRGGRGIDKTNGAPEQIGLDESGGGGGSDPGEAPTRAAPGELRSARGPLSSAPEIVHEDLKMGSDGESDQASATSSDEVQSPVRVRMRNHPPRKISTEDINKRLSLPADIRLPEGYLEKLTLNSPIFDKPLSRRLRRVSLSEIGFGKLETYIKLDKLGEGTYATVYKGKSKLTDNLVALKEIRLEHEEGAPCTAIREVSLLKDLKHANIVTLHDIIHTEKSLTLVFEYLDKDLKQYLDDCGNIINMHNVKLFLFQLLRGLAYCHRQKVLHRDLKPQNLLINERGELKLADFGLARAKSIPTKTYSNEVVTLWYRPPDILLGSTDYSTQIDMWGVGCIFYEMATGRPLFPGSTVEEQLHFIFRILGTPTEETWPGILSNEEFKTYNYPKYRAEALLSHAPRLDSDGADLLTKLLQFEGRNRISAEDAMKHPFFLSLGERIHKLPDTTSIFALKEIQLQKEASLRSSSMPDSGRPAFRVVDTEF
Another experiment addresses DYRK1a (h) (Homo sapiens (Human), UniProt Q13627). As to the kind of experiment: Kinase selectivity panel and IC50 determination. The format is biochemical. The note with it: for inhibition at 10 µM: duplicate, read-out: % inhibition of control values, DYRK1a (h). Here is the method:
as §2, §3, §4, §5, §8, §6, §7

For the next experiment, the target named is mTOR kinase (h) (FRAP1) (Homo sapiens (Human), UniProt P42345). As to the kind of experiment: Kinase selectivity panel. The format is biochemical. The note with it: duplicate, read-out: % inhibition of control values, mTOR kinase (h) (FRAP1). Put shortly:
as §1

The next experiment has as its target smMLCK (h) (MYLK) (Homo sapiens (Human), UniProt Q15746). The experiment is described as follows: Kinase selectivity panel. The format is biochemical. Particulars: duplicate, read-out: % inhibition of control values, smMLCK (h) (MYLK). A digest of the protocol:
as §1

A further experiment concerns the target NEK1 (h) (Homo sapiens (Human), UniProt Q96PY6). The experiment is described as follows: Kinase selectivity panel. The format is biochemical. The note with it: duplicate, read-out: % inhibition of control values, NEK1 (h). A digest of the protocol: as §1
For another experiment, the target named is p38gamma kinase (h) (Homo sapiens (Human), UniProt P53778). The experiment is described as follows: Kinase selectivity panel. The format is biochemical. The note with it: duplicate, read-out: % inhibition of control values, p38gamma kinase (h). A digest of the protocol:
as §1

Another experiment has as its target MSK1 (h) (Homo sapiens (Human), UniProt O75582). As to the kind of experiment: Kinase selectivity panel. It is filed as biochemical. The note with it: duplicate, read-out: % inhibition of control values, MSK1 (h). Put shortly: as §1
Another experiment has as its target MEK1/MAP2K1 (h) (Homo sapiens (Human), UniProt Q02750). As to the kind of experiment: Kinase selectivity panel. The note with it: duplicate, read-out: % inhibition of control values, MEK1/MAP2K1 (h). The format is biochemical. A digest of the protocol:
as §1

The mark [1] stands for this setting: LANCE phosphorylation assay, five concentrations 100 μM to 10 nM, duplicate, read-out: IC50.
Setting [2] is: 10 μM, duplicate, human recombinant GSK-3β, 90 minutes at 22° C.
Where [3] appears, read: Table 5A, method of test I, second assay.

Where “and” joins values, the source holds several entries; their conditions need not be identical. Identical values can stand only once. Counter-ions that a name gives are not always drawn. Like-named read-outs stand apart in the source and are kept apart here.

Chain of PKCbeta 1 (h) (P05771 whole entry): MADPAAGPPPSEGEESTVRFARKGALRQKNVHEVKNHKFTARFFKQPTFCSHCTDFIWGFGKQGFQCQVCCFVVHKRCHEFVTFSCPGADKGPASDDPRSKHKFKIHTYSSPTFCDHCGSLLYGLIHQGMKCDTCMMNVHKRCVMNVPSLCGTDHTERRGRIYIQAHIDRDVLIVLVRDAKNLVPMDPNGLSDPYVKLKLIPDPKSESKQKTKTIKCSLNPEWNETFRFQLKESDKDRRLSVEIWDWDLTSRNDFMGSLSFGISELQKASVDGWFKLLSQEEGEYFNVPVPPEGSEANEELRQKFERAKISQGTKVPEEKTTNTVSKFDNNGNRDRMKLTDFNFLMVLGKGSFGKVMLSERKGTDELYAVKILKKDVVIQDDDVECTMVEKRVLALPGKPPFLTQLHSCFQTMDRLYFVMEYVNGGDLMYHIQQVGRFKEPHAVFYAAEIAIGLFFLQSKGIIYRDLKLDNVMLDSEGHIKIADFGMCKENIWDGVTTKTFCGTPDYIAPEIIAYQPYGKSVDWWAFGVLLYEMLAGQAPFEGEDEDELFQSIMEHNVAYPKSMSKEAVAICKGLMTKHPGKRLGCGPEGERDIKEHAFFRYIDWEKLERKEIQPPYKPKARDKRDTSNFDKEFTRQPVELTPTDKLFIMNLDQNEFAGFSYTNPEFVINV
Chain of human GSK-3β (P49841 whole entry): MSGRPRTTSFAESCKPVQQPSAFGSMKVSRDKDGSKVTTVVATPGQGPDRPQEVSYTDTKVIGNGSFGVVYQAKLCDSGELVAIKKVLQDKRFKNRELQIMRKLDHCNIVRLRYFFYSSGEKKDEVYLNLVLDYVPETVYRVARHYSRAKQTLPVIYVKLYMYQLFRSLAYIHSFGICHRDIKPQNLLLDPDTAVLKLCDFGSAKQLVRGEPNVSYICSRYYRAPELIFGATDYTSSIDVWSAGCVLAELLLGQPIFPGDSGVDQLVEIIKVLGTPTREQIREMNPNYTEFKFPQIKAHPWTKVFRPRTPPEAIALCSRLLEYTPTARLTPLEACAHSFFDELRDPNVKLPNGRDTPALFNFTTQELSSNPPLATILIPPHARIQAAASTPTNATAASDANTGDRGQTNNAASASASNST
Chain of MEK1/MAP2K1 (h) (Q02750 whole entry): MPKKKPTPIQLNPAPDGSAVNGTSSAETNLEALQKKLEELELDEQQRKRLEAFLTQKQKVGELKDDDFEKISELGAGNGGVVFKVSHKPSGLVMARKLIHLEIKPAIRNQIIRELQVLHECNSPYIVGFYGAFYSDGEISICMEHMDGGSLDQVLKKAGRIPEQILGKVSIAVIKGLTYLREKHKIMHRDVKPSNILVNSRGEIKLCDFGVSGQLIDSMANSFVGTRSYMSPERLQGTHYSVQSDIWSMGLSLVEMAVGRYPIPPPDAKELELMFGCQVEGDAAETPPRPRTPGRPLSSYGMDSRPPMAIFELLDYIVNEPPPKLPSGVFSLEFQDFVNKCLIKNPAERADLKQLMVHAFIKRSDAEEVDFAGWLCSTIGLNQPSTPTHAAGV
Chain of MSK1 (h) (O75582 whole entry): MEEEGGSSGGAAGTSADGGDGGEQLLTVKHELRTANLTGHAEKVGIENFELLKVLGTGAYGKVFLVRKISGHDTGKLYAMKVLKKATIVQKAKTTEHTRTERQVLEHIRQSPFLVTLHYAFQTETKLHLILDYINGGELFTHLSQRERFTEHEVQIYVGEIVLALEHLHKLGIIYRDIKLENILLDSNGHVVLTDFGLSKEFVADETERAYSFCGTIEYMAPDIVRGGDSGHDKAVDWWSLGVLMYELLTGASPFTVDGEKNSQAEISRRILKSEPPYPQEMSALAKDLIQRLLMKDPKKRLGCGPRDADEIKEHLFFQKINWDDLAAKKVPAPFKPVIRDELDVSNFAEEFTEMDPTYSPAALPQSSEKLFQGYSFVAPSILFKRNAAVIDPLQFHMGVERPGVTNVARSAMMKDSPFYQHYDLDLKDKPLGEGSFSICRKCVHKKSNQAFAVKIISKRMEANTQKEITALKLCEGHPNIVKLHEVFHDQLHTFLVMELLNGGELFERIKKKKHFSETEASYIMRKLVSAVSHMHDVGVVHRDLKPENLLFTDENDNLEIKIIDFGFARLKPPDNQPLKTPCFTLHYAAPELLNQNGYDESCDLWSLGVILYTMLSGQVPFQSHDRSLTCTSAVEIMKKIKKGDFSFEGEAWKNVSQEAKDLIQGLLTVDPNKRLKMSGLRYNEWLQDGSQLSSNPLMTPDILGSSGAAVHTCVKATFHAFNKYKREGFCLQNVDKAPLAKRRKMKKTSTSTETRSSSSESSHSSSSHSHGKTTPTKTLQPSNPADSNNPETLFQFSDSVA
Chain of smMLCK (h) (MYLK) (Q15746 whole entry): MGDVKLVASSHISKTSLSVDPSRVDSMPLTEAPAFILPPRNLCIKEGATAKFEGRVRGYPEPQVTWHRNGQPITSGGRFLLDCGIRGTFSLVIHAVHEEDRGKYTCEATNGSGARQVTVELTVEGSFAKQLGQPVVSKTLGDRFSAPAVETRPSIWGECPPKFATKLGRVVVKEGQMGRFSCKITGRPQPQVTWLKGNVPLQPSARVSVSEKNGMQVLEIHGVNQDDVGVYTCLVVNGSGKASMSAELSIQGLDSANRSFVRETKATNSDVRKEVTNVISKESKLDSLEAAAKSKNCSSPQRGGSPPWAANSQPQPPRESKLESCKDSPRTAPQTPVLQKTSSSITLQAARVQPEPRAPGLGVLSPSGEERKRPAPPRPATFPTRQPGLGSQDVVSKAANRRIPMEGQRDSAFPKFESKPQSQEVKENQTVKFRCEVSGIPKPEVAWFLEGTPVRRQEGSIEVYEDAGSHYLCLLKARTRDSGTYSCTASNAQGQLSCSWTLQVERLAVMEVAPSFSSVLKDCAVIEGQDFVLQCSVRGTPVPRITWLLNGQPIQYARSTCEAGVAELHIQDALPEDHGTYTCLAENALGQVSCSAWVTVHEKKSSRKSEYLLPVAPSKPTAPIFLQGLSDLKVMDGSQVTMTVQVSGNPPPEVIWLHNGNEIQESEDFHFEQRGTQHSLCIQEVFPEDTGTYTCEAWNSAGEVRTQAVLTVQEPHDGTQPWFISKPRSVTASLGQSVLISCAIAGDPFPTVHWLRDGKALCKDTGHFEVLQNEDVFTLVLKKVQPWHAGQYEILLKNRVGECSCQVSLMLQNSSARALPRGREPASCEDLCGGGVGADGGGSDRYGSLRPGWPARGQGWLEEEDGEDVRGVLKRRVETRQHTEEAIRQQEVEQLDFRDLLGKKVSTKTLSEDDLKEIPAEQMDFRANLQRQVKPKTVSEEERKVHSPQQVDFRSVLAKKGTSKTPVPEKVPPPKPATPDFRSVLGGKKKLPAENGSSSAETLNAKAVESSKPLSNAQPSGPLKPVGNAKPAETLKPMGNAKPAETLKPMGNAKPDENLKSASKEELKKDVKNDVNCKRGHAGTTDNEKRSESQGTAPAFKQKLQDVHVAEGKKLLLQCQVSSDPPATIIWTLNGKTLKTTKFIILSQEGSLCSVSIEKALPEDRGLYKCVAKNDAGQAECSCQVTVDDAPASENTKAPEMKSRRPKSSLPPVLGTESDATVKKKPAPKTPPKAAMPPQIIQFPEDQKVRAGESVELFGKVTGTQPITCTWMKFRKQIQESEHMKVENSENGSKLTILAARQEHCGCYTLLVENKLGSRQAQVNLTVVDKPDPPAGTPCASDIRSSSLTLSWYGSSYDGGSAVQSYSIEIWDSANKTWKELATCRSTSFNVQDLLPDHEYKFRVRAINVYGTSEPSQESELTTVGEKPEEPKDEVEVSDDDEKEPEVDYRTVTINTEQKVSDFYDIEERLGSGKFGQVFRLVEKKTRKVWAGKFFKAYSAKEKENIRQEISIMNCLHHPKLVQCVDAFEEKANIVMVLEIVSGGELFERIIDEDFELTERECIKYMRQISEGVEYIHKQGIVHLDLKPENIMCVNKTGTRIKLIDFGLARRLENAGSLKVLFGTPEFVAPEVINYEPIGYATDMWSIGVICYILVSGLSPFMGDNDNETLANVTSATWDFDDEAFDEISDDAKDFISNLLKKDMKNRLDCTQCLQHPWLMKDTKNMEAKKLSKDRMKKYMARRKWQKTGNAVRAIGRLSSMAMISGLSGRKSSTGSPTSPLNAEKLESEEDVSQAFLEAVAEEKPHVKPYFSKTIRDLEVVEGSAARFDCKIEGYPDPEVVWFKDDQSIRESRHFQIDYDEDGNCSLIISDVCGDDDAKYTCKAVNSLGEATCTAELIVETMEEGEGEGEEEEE
Chain of p38gamma kinase (h) (P53778 whole entry): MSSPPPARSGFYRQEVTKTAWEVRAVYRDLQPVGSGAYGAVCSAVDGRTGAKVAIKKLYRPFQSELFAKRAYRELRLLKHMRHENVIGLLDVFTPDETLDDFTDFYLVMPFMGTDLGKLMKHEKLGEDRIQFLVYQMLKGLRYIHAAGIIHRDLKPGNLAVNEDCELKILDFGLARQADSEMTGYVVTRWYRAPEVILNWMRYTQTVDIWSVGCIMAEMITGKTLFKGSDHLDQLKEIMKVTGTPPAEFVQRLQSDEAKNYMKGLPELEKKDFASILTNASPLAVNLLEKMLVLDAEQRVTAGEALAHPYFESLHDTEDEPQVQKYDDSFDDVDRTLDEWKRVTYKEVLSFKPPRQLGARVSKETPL

A word on the IC50: it is the point on the concentration scale where inhibition reaches its midpoint. In the case of `COc1ccncc1-c1ccc2[nH]nc(C(=O)NCC3CCN(Cc4ccc(C(=O)O)o4)CC3)c2c1` [Compound 21, 5-({4-[({[5-(4-Methoxypyridin-3-yl)-1H-indazol-3-yl]carbonyl}amino)methyl]piperidin-1-yl}methyl)furan-2-carboxylic acid formate], the IC50 at human GSK-3β (setting [1]) is 0.01 µM. Also, the inhibition at 10 µM stood at 0% at PKCbeta 1 (h), 100% at CDK2 (h) (cycA), 94% at PCTAIRE1 kinase (h) and 99% at DYRK1a (h). In the experiment with AMPKalpha, the “% inhibition of control values, AMPKalpha” value (shortened to “% inhibition … AMPKalpha”) amounted to 70%.

As for `COc1ccc2[nH]nc(C(=O)NCC3CCN(Cc4ccc(C(=O)O)o4)CC3)c2c1` [Compound 24, 5-{[4-({[(5-Methoxy-1H-indazol-3-yl)carbonyl]amino}methyl)piperidin-1-yl]methyl}furan-2-carboxylic acid], on human GSK-3β (setting [1]), the IC50 came out at 0.4 µM. In addition, the inhibition at 10 µM on PKCbeta 1 (h) was 0%; at CDK2 (h) (cycA), 36%; at PCTAIRE1 kinase (h), 1%; on DYRK1a (h), 59%. Besides, the “% inhibition … AMPKalpha” value with AMPKalpha was found to be 21%.

With `COc1ccc2[nH]nc(C(=O)NCC3CCN(CCc4ccc(O)cc4)CC3)c2c1` [Compound 1, N-({1-[2-(4-hydroxyphenyl)ethyl]-piperidin-4-yl}methyl)-5-methoxy-1H-indazole-3-carboxamide], on human GSK-3β (setting [2]), the “% Inhibition [10 μM]” value was 94%. Moreover, the inhibition at 10 µM at human GSK-3β (setting [2]) is more than 90%; at mTOR kinase (h) (FRAP1), 0%; at smMLCK (h) (MYLK), 0%; at NEK1 (h), 1%; on p38gamma kinase (h), 2%; on MSK1 (h), 8%. For the same compound, the inhibition at 10 µM at PKCbeta 1 (h) is 9%; at MEK1/MAP2K1 (h), 25%; at CDK2 (h) (cycA) it was 27%; on PCTAIRE1 kinase (h), 87%; on DYRK1a (h), 63%. Further, the concentration for half-maximal inhibition (IC50) at human GSK-3β (setting [1]) is < 0.6 µM and 0.35 µM; at human GSK-3β (Table 5A, method of test I, second assay, read-out: IC50 [μM] Gsk3β), 0.35 µM; against CDK2 (h) (cycA) (setting [3]), 36 µM; against PCTAIRE1 kinase (h) (setting [3]), 1.5 µM; against DYRK1a (h) (setting [3]), 2.9 µM. Besides, the “% inhibition … AMPKalpha” value in the experiment with AMPKalpha was determined as 13%.
